Assay results: the supplement of paper PMC13207355

Tests used:
Conditions in all cases: exposure time: 72 h
E21 [1] = patient-derived glioblastoma stem cells of mesenchymal subtype; assay: surviving fraction (nuclei count normalised to DMSO); higher = more cells surviving (less toxic)
FT3469 [2] = normal neural stem cell line; assay: as above
E31 [3] = patient-derived glioblastoma stem cells of proneural subtype; assay: as above
E34 [4] = patient-derived glioblastoma stem cells of proneural subtype; assay: as above
E57 [5] = patient-derived glioblastoma stem cells of mesenchymal subtype; assay: as above
E28 [6] = patient-derived glioblastoma stem cells of classical subtype; assay: as above
E13 [7] = patient-derived glioblastoma stem cells of classical subtype; assay: as above
E21 [8] = assay: phenotypic distance (Euclidean, principal components) from DMSO controls (arbitrary units); higher = stronger morphological change
FT3469 [9] = assay: as above
E31 [10] = assay: as above
E34 [11] = assay: as above
E57 [12] = assay: as above
E28 [13] = assay: as above
E13 [14] = assay: as above
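For phenotypic distance (Euclidean, principal components) from DMSO controls in this document: cell Painting imaging in 384-well plates, CellProfiler features reduced to at least 20 principal components, Euclidean distance versus same-plate DMSO vehicle wells (0.1% v/v), median over six images per well.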
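For surviving fraction (nuclei count normalised to DMSO) in this document: nuclei counted by high-content imaging of Hoechst-stained cells in laminin-coated 384-well plates, relative to 0.1% DMSO vehicle wells, with staurosporine as cell-death control.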

Molecule `C/C(=C\c1csc(C)n1)[C@@H]1C[C@@H]2O[C@]2(C)CCC[C@H](C)[C@H](O)[C@@H](C)C(=O)C(C)(C)[C@@H](O)CC(=O)N1` [Ixabepilone] has a surviving fraction (E21 [1]; 4.1 nM) of 0.229, a surviving fraction (E21 [1]; 12.3 nM) of 0.256 and a surviving fraction (E21 [1]; 37 nM) of 0.211. The surviving fraction (E21 [1]; 111.1 nM) was 0.245, the surviving fraction (E21 [1]; 333.3 nM) was 0.286 and the surviving fraction (E21 [1]; 1000 nM) was 0.259. The surviving fraction (E21 [1]; 3000 nM) was 0.243, the surviving fraction (FT3469 [2]; 4.1 nM) was 0.574 and the surviving fraction (FT3469 [2]; 12.3 nM) was 0.624. It also gave a surviving fraction (FT3469 [2]; 37 nM) of 0.63, a surviving fraction (FT3469 [2]; 111.1 nM) of 0.677 and a surviving fraction (FT3469 [2]; 333.3 nM) of 0.521. For the same molecule, the surviving fraction (FT3469 [2]; 1000 nM) was 0.716, the surviving fraction (FT3469 [2]; 3000 nM) was 0.548 and the surviving fraction (E31 [3]; 4.1 nM) was 0.269. For the same molecule, the surviving fraction (E31 [3]; 12.3 nM) was 0.261, the surviving fraction (E31 [3]; 37 nM) was 0.172 and the surviving fraction (E31 [3]; 111.1 nM) was 0.149. For the same molecule, the surviving fraction (E31 [3]; 333.3 nM) was 0.137, the surviving fraction (E31 [3]; 1000 nM) was 0.208 and the surviving fraction (E31 [3]; 3000 nM) was 0.157. It also gave a surviving fraction (E34 [4]; 4.1 nM) of 0.609, a surviving fraction (E34 [4]; 12.3 nM) of 0.672 and a surviving fraction (E34 [4]; 37 nM) of 0.582. The surviving fraction (E34 [4]; 111.1 nM) was 0.531, the surviving fraction (E34 [4]; 333.3 nM) was 0.465 and the surviving fraction (E34 [4]; 1000 nM) was 0.421. For the same molecule, the surviving fraction (E34 [4]; 3000 nM) was 0.331, the surviving fraction (E57 [5]; 4.1 nM) was 0.172 and the surviving fraction (E57 [5]; 12.3 nM) was 0.152. For the same molecule, the surviving fraction (E57 [5]; 37 nM) was 0.128, the surviving fraction (E57 [5]; 111.1 nM) was 0.0952 and the surviving fraction (E57 [5]; 333.3 nM) was 0.0774. It also gave a surviving fraction (E57 [5]; 1000 nM) of 0.0873, a surviving fraction (E57 [5]; 3000 nM) of 0.0627 and a surviving fraction (E28 [6]; 4.1 nM) of 0.611. The surviving fraction (E28 [6]; 12.3 nM) was 0.6, the surviving fraction (E28 [6]; 37 nM) was 0.431 and the surviving fraction (E28 [6]; 111.1 nM) was 0.464. For the same molecule, the surviving fraction (E28 [6]; 333.3 nM) was 0.345, the surviving fraction (E28 [6]; 1000 nM) was 0.404 and the surviving fraction (E28 [6]; 3000 nM) was 0.237. The surviving fraction (E13 [7]; 4.1 nM) was 0.341, the surviving fraction (E13 [7]; 12.3 nM) was 0.286 and the surviving fraction (E13 [7]; 37 nM) was 0.271. It also gave a surviving fraction (E13 [7]; 111.1 nM) of 0.193, a surviving fraction (E13 [7]; 333.3 nM) of 0.21 and a surviving fraction (E13 [7]; 1000 nM) of 0.193. For the same molecule, the surviving fraction (E13 [7]; 3000 nM) was 0.175, the phenotypic distance (E21 [8]; 4.1 nM) was 6.26 and the phenotypic distance (E21 [8]; 12.3 nM) was 5.66. The phenotypic distance (E21 [8]; 37 nM) was 6.8, the phenotypic distance (E21 [8]; 111.1 nM) was 5.59 and the phenotypic distance (E21 [8]; 333.3 nM) was 6.55. It also gave a phenotypic distance (E21 [8]; 1000 nM) of 6.74, a phenotypic distance (E21 [8]; 3000 nM) of 6.15 and a phenotypic distance (FT3469 [9]; 4.1 nM) of 2.99. The phenotypic distance (FT3469 [9]; 12.3 nM) was 3.28, the phenotypic distance (FT3469 [9]; 37 nM) was 4.81 and the phenotypic distance (FT3469 [9]; 111.1 nM) was 3.58. The phenotypic distance (FT3469 [9]; 333.3 nM) was 3.51, the phenotypic distance (FT3469 [9]; 1000 nM) was 4.06 and the phenotypic distance (FT3469 [9]; 3000 nM) was 4.05. It also gave a phenotypic distance (E31 [10]; 4.1 nM) of 2.61, a phenotypic distance (E31 [10]; 12.3 nM) of 3.43 and a phenotypic distance (E31 [10]; 37 nM) of 3.83. The phenotypic distance (E31 [10]; 111.1 nM) was 4.57, the phenotypic distance (E31 [10]; 333.3 nM) was 4.48 and the phenotypic distance (E31 [10]; 1000 nM) was 4.78. It also gave a phenotypic distance (E31 [10]; 3000 nM) of 4.08, a phenotypic distance (E34 [11]; 4.1 nM) of 2.35 and a phenotypic distance (E34 [11]; 12.3 nM) of 2.42. The phenotypic distance (E34 [11]; 37 nM) was 2.65, the phenotypic distance (E34 [11]; 111.1 nM) was 3.43 and the phenotypic distance (E34 [11]; 333.3 nM) was 3.13. The phenotypic distance (E34 [11]; 1000 nM) was 3.44, the phenotypic distance (E34 [11]; 3000 nM) was 4.33 and the phenotypic distance (E57 [12]; 4.1 nM) was 6.02. For the same molecule, the phenotypic distance (E57 [12]; 12.3 nM) was 5.51, the phenotypic distance (E57 [12]; 37 nM) was 5.64 and the phenotypic distance (E57 [12]; 111.1 nM) was 5.48. The phenotypic distance (E57 [12]; 333.3 nM) was 7.37, the phenotypic distance (E57 [12]; 1000 nM) was 6.58 and the phenotypic distance (E57 [12]; 3000 nM) was 6.89. For the same molecule, the phenotypic distance (E28 [13]; 4.1 nM) was 2.8, the phenotypic distance (E28 [13]; 12.3 nM) was 2.1 and the phenotypic distance (E28 [13]; 37 nM) was 3.6. It also gave a phenotypic distance (E28 [13]; 111.1 nM) of 4.12, a phenotypic distance (E28 [13]; 333.3 nM) of 4.09 and a phenotypic distance (E28 [13]; 1000 nM) of 3.46. The phenotypic distance (E28 [13]; 3000 nM) was 4.61, the phenotypic distance (E13 [14]; 4.1 nM) was 4.32 and the phenotypic distance (E13 [14]; 12.3 nM) was 5.35. For the same molecule, the phenotypic distance (E13 [14]; 37 nM) was 4.56, the phenotypic distance (E13 [14]; 111.1 nM) was 5.86 and the phenotypic distance (E13 [14]; 333.3 nM) was 5.9. For the same molecule, the phenotypic distance (E13 [14]; 1000 nM) was 6.44 and the phenotypic distance (E13 [14]; 3000 nM) was 6.86.
